# Measurements published in US6635265B1, “Materials and methods useful for the control of insect larvae” (University of Florida Research Foundation, Inc., priority 1999, dated 2003).
# Key:
# [1] = test system: mosquito larvae; test: Feeding TMOF and its analogue peptides to mosquito larvae (LD50); type: in vivo, Aedes aegypti; conditions: 100 μl microtiter plates, 7 days, diet of autoclaved yeast (1 mg/ml)
# Text: TMOF can traverse the gut epithelium, enter the hemolymph and bind a gut receptor (Borovsky, D. and F. Mahmood (1995) “Feeding the mosquito Aedes aegypti with TMOF and its analogs; effect on trypsin biosynthesis and egg development,” Regulatory Peptides 57:273-281.; Borovsky, D., C. A. Powell, J. K. Nayar, J. E. Blalock, and T. K. Hayes (1994) “Characterization and localization of mosquito-gut receptors for trypsin modulating oostatic factor using complementary peptide immunochemistry” FASEB J. 8:350-355.). […] This characteristic permits testing of TMOF and its analogs by feeding them to mosquito and other pest larvae. To determine whether truncated TMOF peptides have an effect on larval growth and development, a series of peptides were synthesized and tested by feeding them to mosquito larvae at concentrations of 0.5 to 5.0 mg/ml (Table 1). Individual, newly hatched Aedes aegypti larvae were maintained in separate microtiter wells on a diet of autoclaved yeast (1 mg/ml). The diet was supplemented with TMOF peptides (Table 1). An identical number of larvae which were maintained on yeast served as a control. […] All control groups survived and larval growth and development was normal. Since larvae swallow only a small portion of the yeast particles that adsorbed the peptides, it is assumed that approximately 1 to 20 ng are taken orally at the high concentrations.
# [2] = test system: fourth instar Heliothis virescens; test: Feeding TMOF analogs to fourth instar H. virescens: larval weight; type: in vivo; conditions: for larval weight and trypsin biosynthesis (in words): fourth instar larvae fed TMOF analog peptides for 5 days; for Weight Gain / Weight mg ± S.E.M. End: fourth instar larvae fed synthetic food and 0.8 mg of TMOF analogs for 5 days
# Description: In both cases a reduction in weight gain and trypsin inhibition was noted (Tables 3 and 4).
# (§1) Larvae were fed for 5 to 14 days and larval weight and trypsin activity were measured at the end of the experimental periods. […] When first instar larvae were fed for 14 days on analogs 15 and 16 (Table 4), an 18% and 26% reduction in weight was observed.
# [3] = test system: trypsin biosynthesis; test: Feeding TMOF analogs to fourth instar H. virescens: gut trypsin biosynthesis ([3H]DFP); type: in vivo, Heliothis virescens; conditions: guts of fourth instar larvae after 5 days feeding on 0.8 mg of TMOF analogs
# Description: as §1
# [4] = test system: first instar H. virescens larvae; test: Feeding of first instar H. virescens on TMOF analogs for 14 days; type: in vivo, Heliothis virescens; conditions: first instar larvae fed individually 1.6 µg of TMOF analogs for 14 days
# [5] = test system: trypsin biosynthesis; test: Injecting TMOF-R analogues into second instar Heliothis virescens: trypsin biosynthesis (BApNA); type: in vivo; conditions: second instar larvae, 24 hours after injection
# Description: TMOF analogues (5 to 8 amino acids in length, and polymers of these analogues) in which Arg was added at the C-terminus were evaluated to determine their effect on larval growth and development. A series of analogues were synthesized and tested by feeding them to mosquito larvae at concentrations of (0.5 to 5.0 mg/ml; Table 4). Concentrations of 2.0 to 0.065 mg/ml were used to feed mosquito larvae and calculate the Lethal Dose at 50% mortality (LD50; Table 4) of the TMOF analogues. […] In both cases larval death and trypsin biosynthesis inhibition was noted (Table 4 and 5). […] The advantage of using short analogues connected by Arg is that they can be digested in the gut into short TMOF analogues that can penetrate the midgut much faster than longer analogues.
# Individual second instar larvae of H. virescens were injected with TMOF-R analogues (10 to 0.25 μg per larva) and maintained in separate plastic cups on artificial diet. Twenty-four hours after the injections 3 groups of larvae (3 per group) were assayed for trypsin biosynthesis using BApNA (trypsin specific substrate; Table 5).
# [6] = test system: first instar larvae S. exigua; test: Inhibition of Spodoptera exigua larval growth by feeding of TMOF; type: in vivo
# Description: The x-axis represents the TMOF concentration and the y-axis represents percentage of growth inhibition.
# Individual, first instar larvae S. exigua were maintained in separate petri dishes and were fed on artificial diet blocks of 50 mg on which different concentrations of TMOF (0 to 100 μg) were adsorbed. Larvae were fed for 6 days and larval length was measured every 24 hours and compared with controls that were not fed TMOF. Each experiment was repeated 10 times.
substance,measurement,setting,value
YDA (TMOF peptide) [36],LD50 mM ± S.E.M.,[1],3 1.6 ± 0.13 mM
YDAAP (TMOF peptide) [37],larval weight and trypsin biosynthesis (in words),[2],Reductions in larval weight and trypsin biosynthesis were observed
same,Weight Gain,[2],179 mg
same,Weight mg ± S.E.M. End,[2],217 ± 9.5 mg
same,Inhibition (% ± S.E.M.) of trypsin biosynthesis,[3],17 ± 1.6%
same,Trypsin μg ± S.E.M.,[3],2.1 ± 0.2 µg
same,LD50 mM ± S.E.M.,[1],3 1.0 ± 0.18 mM
same,Number of Dead Larvae,[4],0
same,Weight (mg) ± S.E.M.,[4],133 ± 7 mg
same,Weight Reduction (%) ± S.E.M.,[4],18 ± 1%
same,Weight Reduction (%) ± S.E.M.,[4]; listed as 15,18%
YDF (TMOF peptide) [38],LD50 mM ± S.E.M.,[1],3 0.97 ± 0.11 mM
YDFAP (TMOF peptide) [39],Weight Gain,[2],164 mg
same,Weight mg ± S.E.M. End,[2],201 ± 12 mg
same,Inhibition (% ± S.E.M.) of trypsin biosynthesis,[3],19 ± 1.5%
same,Trypsin μg ± S.E.M.,[3],2.1 ± 0.2 µg
same,LD50 mM ± S.E.M.,[1],3 0.74 ± 0.13 mM
same,Number of Dead Larvae,[4],1
same,Weight (mg) ± S.E.M.,[4],121 ± 7 mg
same,Weight Reduction (%) ± S.E.M.,[4],26 ± 1.5%
YDG (TMOF peptide) [40],LD50 mM ± S.E.M.,[1],3 0.95 ± 0.11 mM
YDLAP (TMOF peptide) [41],LD50 mM ± S.E.M.,[1],3 0.6 ± 0.05 mM
YDP (TMOF peptide) [42],Weight Gain,[2],186.3 mg
same,Weight mg ± S.E.M. End,[2],223.4 ± 16 mg
same,Inhibition (% ± S.E.M.) of trypsin biosynthesis,[3],19 ± 3.2%
same,Trypsin μg ± S.E.M.,[3],2.1 ± 0.3 µg
same,LD50 mM ± S.E.M.,[1],5 2.3 ± 0.4 mM
same,Number of Dead Larvae,[4],0
same,Weight (mg) ± S.E.M.,[4],157 ± 10 mg
same,Weight Reduction (%) ± S.E.M.,[4],4 ± 0.2%
YDPAA (TMOF peptide) [55],LD50 mM ± S.E.M.,[1],3 1.6 ± 0.13 mM
YDPAF (TMOF peptide) [44],LD50 mM ± S.E.M.,[1],3 0.33 ± 0.2 mM
YDPAFR (TMOF-R analogue peptide) [58],Inhibition (% ± S.E.M.) of trypsin biosynthesis,[5]; 10 μg/injection,0 ± 0%
YDPAL (TMOF peptide) [45],LD50 mM ± S.E.M.,[1],3 0.52 ± 0.03 mM
YDPAP6 (YDPAPPPPPP; listed as Aedes aegypti) [reference compound],Inhibition (% ± S.E.M.) of trypsin biosynthesis,[5]; 0.25 μg/injection,19.5 ± 0.7%
same,Inhibition (% ± S.E.M.) of trypsin biosynthesis,[5]; 0.5 μg/injection,11 ± 1%
same,Inhibition (% ± S.E.M.) of trypsin biosynthesis,[5]; 1 μg/injection,25 ± 2%
same,Inhibition (% ± S.E.M.) of trypsin biosynthesis,[5]; 10 μg/injection,56%
same,LD50 mM ± S.E.M.,[1],3 0.2 ± 0.02 mM
same,larval growth (larval length) compared with controls,[6]; first instar S. exigua fed TMOF (0 to 100 μg) adsorbed on 50 mg artificial diet blocks for 6 days,did not grow as fast as the controls
same,amount of TMOF fed at which maximum growth inhibition occurred,"[6]; first instar S. exigua, 50 mg diet blocks, 6 days",100 µg
YDPAP (TMOF peptide) [11],LD50 mM ± S.E.M.,[1],3 1.64 ± 0.03 mM
YDPAPR (TMOF-R analogue peptide) [57],Inhibition (% ± S.E.M.) of trypsin biosynthesis,[5]; 0.25 μg/injection,11 ± 1%
same,Inhibition (% ± S.E.M.) of trypsin biosynthesis,[5]; 0.5 μg/injection,14 ± 1%
same,Inhibition (% ± S.E.M.) of trypsin biosynthesis,[5]; 1 μg/injection,31.5 ± 2%
same,Inhibition (% ± S.E.M.) of trypsin biosynthesis,[5]; 10 μg/injection,53 ± 25%
YDPAR (TMOF-R analogue peptide) [59],Inhibition (% ± S.E.M.) of trypsin biosynthesis,[5]; 0.5 μg/injection,1 ± 0.07%
same,Inhibition (% ± S.E.M.) of trypsin biosynthesis,[5]; 1 μg/injection,39 ± 2%
same,Inhibition (% ± S.E.M.) of trypsin biosynthesis,[5]; 10 μg/injection,33.5 ± 9%
YDPFP (TMOF peptide) [47],LD50 mM ± S.E.M.,[1],4 1.7 ± 0.4 mM
YDPGP (TMOF peptide) [48],larval weight and trypsin biosynthesis (in words),[2],Reductions in larval weight and trypsin biosynthesis were observed
same,Weight Gain,[2],163.1 mg
same,Weight mg ± S.E.M. End,[2],199.8 ± 11 mg
same,Inhibition (% ± S.E.M.) of trypsin biosynthesis,[3],17 ± 1%
same,Trypsin μg ± S.E.M.,[3],2.1 ± 0.1 µg
same,LD50 mM ± S.E.M.,[1],5 1.1 ± 0.18 mM
same,Number of Dead Larvae,[4],2
same,Weight (mg) ± S.E.M.,[4],153 ± 10 mg
same,Weight Reduction (%) ± S.E.M.,[4],6 ± 0.4%
same,Weight Reduction (%) ± S.E.M.,[4]; listed as 16,26%
YDPLP (TMOF peptide) [49],LD50 mM ± S.E.M.,[1],3 1.5 ± 0.04 mM
YEPAP (TMOF peptide) [50],LD50 mM ± S.E.M.,[1],3 0.35 ± 0.02 mM
YFPAP (TMOF peptide) [51],LD50 mM ± S.E.M.,[1],3 0.64 ± 0.03 mM
YNPAP (TMOF peptide) [52],LD50 mM ± S.E.M.,[1],3 0.55 ± 0.03 mM
YSF (TMOF peptide) [53],LD50 mM ± S.E.M.,[1],3 1.08 ± 0.12 mM
YSPAP (TMOF peptide) [54],larval weight and trypsin biosynthesis (in words),[2],Reductions in larval weight and trypsin biosynthesis were observed
same,Weight Gain,[2],151 mg
same,Weight mg ± S.E.M. End,[2],188 ± 10.6 mg
same,Inhibition (% ± S.E.M.) of trypsin biosynthesis,[3],19 ± 2%
same,Trypsin μg ± S.E.M.,[3],2.0 ± 0.2 µg
same,LD50 mM ± S.E.M.,[1],3 1.4 ± 0.03 mM
same,Number of Dead Larvae,[4],0
same,Weight (mg) ± S.E.M.,[4],168 ± 11 mg
same,Weight Reduction (%) ± S.E.M.,[4],0%
